Drawing on patent publication US4150029A, “3-Aryl 2-oxazolidinones, their process of preparation and their therapeutical application” (Delalande S.A., priority 1976, dated 1979), this text covers ED50, LD50 and mortality for 15 molecules.

For series [1], the system named is generalised trembling caused by an intraperitoneal injection of dl-5-hydroxytryptophane. Nature of the series: Test A: potentiation of generalised trembling caused by dl-5-hydroxytryptophane in the mouse. The series is classed as in vivo. The following applies: po, read-out: Test A 50 DE. Here is the method: Potentiation in a mouse of generalised trembling caused by an intraperitoneal injection (200 mg/kg) of dl-5-hydroxytryptophane, according to the mode of operation described by GOURET C. and RAYNAUD G. in the J. Pharmacol. (PARIS), (1974), 5, 231.

Series [2] has as its system ptosis observed one hour after an intravenous injection of reserpine. Nature of the series: Test B: antagonism of reserpine-induced ptosis in the mouse. The series is classed as in vivo. The following applies: po, 1 h, p.o., reserpine 2 mg/kg i.v., read-out: Test B 50 DE. Here is the method:
Antagonism in relation to ptosis observed one hour after an intravenous injection (2 mg/kg) of reserpine was given to a mouse, according to the mode of operation described by GOURET C. and THOMAS J. in J. Pharmacol. (PARIS), (1973), 4, 401.

Series [3] concerns pontogeniculo-occipital points (P.G.O.) caused by reserpine. Nature of the series: Test C: diminution in density of reserpine-induced pontogeniculo-occipital (P.G.O.) points in the cat. It is filed as in vivo. The following applies: Felis catus, po, reserpine 0.5 mg/kg, read-out: Test C 50 DE. Here is the method: Diminution in the density of pontogeniculo-occipital points (P.G.O.) caused by injecting a cat with 0.5 mg/kg of reserpine, according to the mode of operation described by COSTON A. and GOURET C. in J. Pharmacol. (PARIS), (1976), 7, 409.

Series [4] is described as follows: Acute toxicity in mice. The following applies: mouse, in vivo, po; for LD50: acute toxicity, read-out: 50 DL.
Where [5] appears, read: mouse, p.o., dl-5-hydroxytryptophane 200 mg/kg i.p.

Where two headings read alike, the source gives them in different places.

Regarding `Cc1cccc(N2CC(CO)OC2=O)c1` (centres unmarked) [TOLOXATONE, reference compound], the values for the ED50 in series [1] (setting [5]), in series [2] and in series [3] were 60 mg/kg, 50 mg/kg and 28 mg/kg, respectively. Further, the LD50 in series [4] was determined as 1850 mg/kg.
The like results for `O=C1OC(CO)CN1c1ccc([N+](=O)[O-])cc1` (centres unmarked) [compound 740564] were, in that order, 38 mg/kg, 42 mg/kg, 16 mg/kg and above 1000 mg/kg.
Turning to `CNC(=O)OCC1CN(c2cccc(C(F)(F)F)c2)C(=O)O1` (centres unmarked) [compound 740704], the values for the ED50 in series [1] (Mus musculus), in series [2] and in series [3] were 42 mg/kg, 12 mg/kg and 52 mg/kg, respectively. In addition, in series [4] (dose administered 2000 mg/kg/p.o.), the mortality (in general, the share of the test organisms that died) was 0%.
On to `CC(C)NC(=O)OCC1CN(c2cccc(C(F)(F)F)c2)C(=O)O1` (centres unmarked) [compound 740711], for which the values for the ED50 in series [1] (setting [5]) and in series [2] were 19 mg/kg and 26 mg/kg, respectively. In series [4] (dose administered 1000 mg/kg/p.o.), this molecule came in with a mortality of 0%.
With `CCOc1ccc(N2CC(CO)OC2=O)cc1` (centres unmarked) [compound 760037], the figures for the ED50 in series [1] (setting [5]), in series [2] and in series [3] were 16 mg/kg, 40 mg/kg and 5.4 mg/kg, respectively. Also, the LD50 in series [4] was above 2000 mg/kg.
The like results for `CSc1ccc(N2CC(CO)OC2=O)cc1` (centres unmarked) [compound 760082] were, in that order, 22 mg/kg, 18 mg/kg, 8.4 mg/kg and above 2000 mg/kg.
For `O=C1OC(CO)CN1c1ccc(OCc2ccccc2)cc1` (centres unmarked) [compound 760167, 5-hydroxymethyl 3-p-benzyloxyphenyl 2-oxazolidinone], in that order: 9.5 mg/kg, 3.3 mg/kg, 15.2 mg/kg and above 2000 mg/kg.
For `N#Cc1ccc(N2CC(CO)OC2=O)cc1` (centres unmarked) [compound 760271], in that order: 20 mg/kg, 11 mg/kg, 11 mg/kg and 1050 mg/kg.
With `CCCCOc1ccc(N2CC(CO)OC2=O)cc1` (centres unmarked) [compound 760304], the ED50 was found to be 5 mg/kg in series [1] (setting [5]), 5 mg/kg in series [2] and 6.1 mg/kg in series [3]. The LD50 in series [4] was above 2000 mg/kg.
As to `CNC(=O)OCC1CN(c2ccc(OCc3cccc(Cl)c3)cc2)C(=O)O1` (centres unmarked) [compound 760729], the ED50 was above 12.5 mg/kg in series [1] (Mus musculus), 23 mg/kg in series [2] and 50 mg/kg in series [3].
Take `CNC(=O)OCC1CN(c2ccc(C(C)=O)cc2)C(=O)O1` (centres unmarked) [compound 760731]: the ED50 is above 25 mg/kg in series [1] (Mus musculus), 15 mg/kg in series [2] and 17.5 mg/kg in series [3].
As to `CNC(=O)OCC1CN(c2ccc(SC)cc2)C(=O)O1` (centres unmarked) [compound 760786], the results for the ED50 in series [1] (Mus musculus), in series [2] and in series [3] were above 50 mg/kg, 40 mg/kg and 25.5 mg/kg, respectively.
With `C/C=C/COc1ccc(N2CC(CO)OC2=O)cc1` (centres unmarked) [compound 760827], the ED50 in series [1] (setting [5]) is 15 mg/kg; in series [2] it was 10 mg/kg; in series [3], 5.2 mg/kg.
In the case of `CC#CCOc1ccc(N2CC(CO)OC2=O)cc1` (centres unmarked) [compound 760877], the ED50 in series [1] (setting [5]) came out at 25 mg/kg; in series [2], 25 mg/kg; in series [3], 5.6 mg/kg.
As for `N#Cc1ccc(COc2ccc(N3CC(CO)OC3=O)cc2)cc1` (centres unmarked) [compound 760881], the ED50 in series [1] (setting [5]) was found to be 12.5 mg/kg; in series [2] it was 5 mg/kg; in series [3], 29 mg/kg.
